ChEMBL document CHEMBL3272106, “Synthesis and narcotic agonist-antagonist evaluation of some 2,6-methano-3-benzazocine-11 propanols. Analogues of the ring C bridged oripavine-7-mehtanols” (1977)
Calls of active or inactive are those of the source. No cut-off for these calls is given here.

How the values were obtained:
Rattus norvegicus [1] = test: Narcotic antagonist activity in sc dosed rat assessed as 50% inhibition of phenazocine-induced response; type: functional
Mus musculus [2] = test: Narcotic agonist activity in sc dosed albino mouse assessed as protection against acetylcholine-induced writhing administered 20 mins prior to acetylcholine challenge measured for 2 mins; type: functional
Rattus norvegicus [3] = test: Narcotic antagonist activity in rat assessed as inhibition of phenazocine-induced response at 80 mg/kg, sc; type: functional, organism-based; set-up: dose 80 mg/kg
Mus musculus [4] = test: Narcotic agonist activity in albino mouse assessed as protection against acetylcholine-induced writhing at 25 mg/kg, sc administered 20 mins prior to acetylcholine challenge measured for 2 mins relative to control; type: functional; details: route subcutaneous
Rattus norvegicus [5] = test: Narcotic antagonist activity in rat assessed as inhibition of phenazocine-induced response at 80 mg/kg, sc relative to nalorphine; type: functional; set-up: scale not given: the % may be the effect or the level left; details: route subcutaneous
[6] = Mus musculus, sc, read-out: ED50

| Compound | AD50 (Rattus norvegicus [1]) [mg/kg] | ED50 (Mus musculus [2]; [6]) [mg/kg] | also measured |
| --- | --- | --- | --- |
| CO[C@@]12CC[C@@]3(C[C@@H]1[C@](C)(O)C(C)(C)C)[C@H]1Cc4ccc(O)c5c4[C@@]3(CCN1CC1CC1)[C@H]2O5 [BUPRENORPHINE] | 0.11 |  |  |
| CCCC(C)(O)CC[C@@H]1[C@H]2Cc3ccc(O)cc3[C@@]1(C)CCN2CC1CC1.CS(=O)(=O)O (stereo not given in full) | 0.019 | 7.6 |  |
| CCC(C)(O)CC[C@@H]1[C@H]2Cc3ccc(O)cc3[C@@]1(C)CCN2C.CS(=O)(=O)O (stereo not given in full) |  | 3.3 | inhibition (Rattus norvegicus [3]): inactive |
| C[C@H]1[C@@H]2Cc3ccc(O)cc3[C@]1(C)CCN2C [METAZOCINE] |  | 0.54 | inhibition (Rattus norvegicus [3]): inactive |
| CN1CC[C@]2(C)c3cc(O)ccc3C[C@@H]1[C@@]2(C)CCC(C)(O)C(C)(C)C (stereo not given in full) [listing 1 of 2 here] |  | > 25 | Activity (Mus musculus [4]): <50% |
| CN1CC[C@]2(C)c3cc(O)ccc3C[C@@H]1[C@H]2CCC(C)(O)C(C)(C)C.CS(=O)(=O)O (stereo in doubt; 4f) |  |  | ED50 (Mus musculus [2]): >25 mg/kg |
| C=CCN1CC[C@]23c4c5ccc(O)c4O[C@H]2[C@@H](O)C=C[C@H]3[C@H]1C5 [NALORPHINE] | 0.1 |  |  |
| CCCCC(C)(O)CC[C@@H]1[C@H]2Cc3ccc(O)cc3[C@@]1(C)CCN2CC1CC1.CS(=O)(=O)O (stereo not given in full) | 0.025 | 6.5 |  |
| CN1CC[C@]2(C)c3cc(O)ccc3C[C@@H]1[C@H]2CCC(C)(O)C(C)(C)C (stereo in doubt; 4f) |  |  | inhibition (Rattus norvegicus [3]): inactive |
| CCCC(C)(O)CC[C@@H]1[C@H]2Cc3ccc(O)cc3[C@@]1(C)CCN2C.CS(=O)(=O)O (stereo not given in full) |  | 2.6 | inhibition (Rattus norvegicus [3]): inactive |
| CC(C)(C)C(C)(O)CC[C@]1(C)[C@H]2Cc3ccc(O)cc3[C@@]1(C)CCN2CC1CC1.CS(=O)(=O)O (single isomer, unassigned; isomer II) | 0.71 |  |  |
| CN1CC[C@]2(C)c3cc(O)ccc3C[C@@H]1[C@@]2(C)CCC(C)(O)C(C)(C)C.CS(=O)(=O)O (mixture of isomers) | 0.33 | > 25 | Activity (Rattus norvegicus [5]): 30%; Activity (Mus musculus [4]): <50% |
| CN1CC[C@]2(C)c3cc(O)ccc3C[C@@H]1[C@H]2CCC(C)(C)O |  | 8.2 | inhibition (Rattus norvegicus [3]): inactive |
| CN1CC[C@]2(C)c3cc(O)ccc3C[C@@H]1[C@@]2(C)CCC(C)(C)O | 2.3 | 3.8 |  |
| CC(C)(C)C(C)(O)CC[C@]1(C)[C@H]2Cc3ccc(O)cc3[C@@]1(C)CCN2CC1CC1.CS(=O)(=O)O (stereo in doubt; 4q) | 0.022 |  | Activity (Mus musculus [4]): <50% |
| CCC(C)(O)CC[C@@H]1[C@H]2Cc3ccc(O)cc3[C@@]1(C)CCN2CC1CC1.CS(=O)(=O)O (stereo not given in full) | 0.04 | 7.9 |  |
| CC(C)(C)C(C)(O)CC[C@@H]1[C@H]2Cc3ccc(O)cc3[C@@]1(C)CCN2CC1CC1.CS(=O)(=O)O (single isomer, unassigned; isomer I) | 0.27 |  | ED50 (Mus musculus [2]): >25 mg/kg; Activity (Mus musculus [4]): <50% |
| CCCCC(C)(O)CC[C@@H]1[C@H]2Cc3ccc(O)cc3[C@@]1(C)CCN2C.CS(=O)(=O)O (stereo not given in full) |  | 2.5 | inhibition (Rattus norvegicus [3]): inactive |
| CN1CC[C@]2(C)c3cc(O)ccc3C[C@@H]1[C@H]2CCC(C)(O)C(C)(C)C.CS(=O)(=O)O (stereo in doubt; 4e) |  |  | ED50 (Mus musculus [2]): >75 mg/kg; Activity (Mus musculus [4]): <50% |
| CC(C)(O)CC[C@]1(C)[C@H]2Cc3ccc(O)cc3[C@@]1(C)CCN2CC1CC1.Cl | 0.006 | 4.5 |  |
| CN1CC[C@]2(C)c3cc(O)ccc3C[C@@H]1[C@@]2(C)CCC(C)(O)C(C)(C)C (stereo not given in full) [listing 2 of 2 here] |  |  | inhibition (Rattus norvegicus [3]): inactive |
| CC(C)(O)CC[C@@H]1[C@H]2Cc3ccc(O)cc3[C@@]1(C)CCN2CC1CC1 | 0.046 | 16 |  |
| C[C@H]1[C@H]2Cc3ccc(O)cc3[C@]1(C)CCN2CC1CC1 [CYCLAZOCINE] | 0.007 | 0.15 |  |
| CC(C)(C)C(C)(O)CC[C@@H]1[C@H]2Cc3ccc(O)cc3[C@@]1(C)CCN2CC1CC1.CS(=O)(=O)O (single isomer, unassigned; isomer II) | 1.1 |  | ED50 (Mus musculus [2]): 9 mg/kg |
